US20250345392A1, “ANNEXIN A1 LIQUID PHARMACEUTICAL COMPOSITION” (ResoTher Pharma A/S, priority 2022, published 2025)
Where two headings read alike, the source gives them in different places. Ends that are not written are not given here.

Test: 14-day repeat IV dose toxicity study with toxicokinetic evaluation on Day 1 and 14 in dogs
Type: in vivo, beagle dogs
Conditions: dog; for C0 / AUC(0-inf) / clearance / half-life / Vd: in vivo
Description: Peptide 1 in blood samples collected from animals used in the studies (rat and dog) has been measured by an LC-MS/MS method. Analysis of samples collected in the pharmacokinetic study in rats was performed prior to validation of the method. Prior to analysis of samples from the GLP toxicology studies, the method was validated according to GLP to ensure that it is selective, accurate, reproducible, and able to produce reliable results. The method was validated over the range from 0.075 to 25 μg/mL Peptide 1.
In the 14-day intravenous toxicity study in beagle dogs (see study description below), samples were collected from 3 male and 3 female animals per group dosed at 0 (Control), 1, 3 or 10 mg/kg/day at 2, 5, 10, 20 and 40 minutes after dosing on Days 1 and 14. Samples were analysed for levels of Peptide 1.

## AMVSEFLKQAWFIENEEQEYVQTLKSSKGGPGSAVSPYPTFNPSSDV-NH2 [Peptide 1]
From 1 mg/kg to 10 mg/kg
  exposure (C(0) and AUCinf) versus dose: increase proportional to dose level
1 mg/kg, Group 2 (1 mg/kg), range over sexes and Days 1 and 14
  C0: 4580 to 8580 ng/mL
1 mg/kg, Group 2 (1 mg/kg), range over sexes and Days 1 and 14, read-out: AUCinf
  AUC(0-inf): 450 to 620 ng·h/mL
3 mg/kg, Group 3 (3 mg/kg), range over sexes and Days 1 and 14
  C0: 12500 to 20000 ng/mL
3 mg/kg, Group 3 (3 mg/kg), range over sexes and Days 1 and 14, read-out: AUCinf
  AUC(0-inf): 1420 to 1970 ng·h/mL
10 mg/kg, Group 4 (10 mg/kg), range over sexes and Days 1 and 14
  C0: 26400 to 58300 ng/mL
10 mg/kg, Group 4 (10 mg/kg), range over sexes and Days 1 and 14, read-out: AUCinf
  AUC(0-inf): 3930 to 4680 ng·h/mL
All groups, read-out: clearance
  clearance: 27.4 to 42.7 mL/min/kg
All groups, read-out: elimination half-life
  half-life: 4.66 to 6.59 min
iv, 1 mg/kg/day, IV 1.0 mg/kg/day, female, Day 1
  C0: 6990 ng/mL
iv, 1 mg/kg/day, IV 1.0 mg/kg/day, female, Day 1, read-out: AUC0-∞ (converted)
  AUC(0-inf): 537 ng·h/mL
iv, 1 mg/kg/day, IV 1.0 mg/kg/day, female, Day 1, read-out: Cl
  clearance: 33.1 mL/min/kg
iv, 1 mg/kg/day, IV 1.0 mg/kg/day, female, Day 1, read-out: T1/2
  half-life: 4.83 min
iv, 1 mg/kg/day, IV 1.0 mg/kg/day, female, Day 1, read-out: Vz
  Vd: 0.232 L/kg
iv, 1 mg/kg/day, IV 1.0 mg/kg/day, female, Day 14
  C0: 8580 ng/mL
iv, 1 mg/kg/day, IV 1.0 mg/kg/day, female, Day 14, read-out: AUC0-∞ (converted)
  AUC(0-inf): 620 ng·h/mL
iv, 1 mg/kg/day, IV 1.0 mg/kg/day, female, Day 14, read-out: Cl
  clearance: 27.4 mL/min/kg
iv, 1 mg/kg/day, IV 1.0 mg/kg/day, female, Day 14, read-out: T1/2
  half-life: 4.66 min
iv, 1 mg/kg/day, IV 1.0 mg/kg/day, female, Day 14, read-out: Vz
  Vd: 0.183 L/kg
iv, 1 mg/kg/day, IV 1.0 mg/kg/day, male, Day 1
  C0: 4580 ng/mL
iv, 1 mg/kg/day, IV 1.0 mg/kg/day, male, Day 1, read-out: AUC0-∞ (converted)
  AUC(0-inf): 450 ng·h/mL
iv, 1 mg/kg/day, IV 1.0 mg/kg/day, male, Day 1, read-out: Cl
  clearance: 37.1 mL/min/kg
iv, 1 mg/kg/day, IV 1.0 mg/kg/day, male, Day 1, read-out: T1/2
  half-life: 4.68 min
iv, 1 mg/kg/day, IV 1.0 mg/kg/day, male, Day 1, read-out: Vz
  Vd: 0.251 L/kg
iv, 1 mg/kg/day, IV 1.0 mg/kg/day, male, Day 14
  C0: 6590 ng/mL
iv, 1 mg/kg/day, IV 1.0 mg/kg/day, male, Day 14, read-out: AUC0-∞ (converted)
  AUC(0-inf): 550 ng·h/mL
iv, 1 mg/kg/day, IV 1.0 mg/kg/day, male, Day 14, read-out: Cl
  clearance: 31 mL/min/kg
iv, 1 mg/kg/day, IV 1.0 mg/kg/day, male, Day 14, read-out: T1/2
  half-life: 6.59 min
iv, 1 mg/kg/day, IV 1.0 mg/kg/day, male, Day 14, read-out: Vz
  Vd: 0.297 L/kg
iv, 3 mg/kg/day, IV 3.0 mg/kg/day, female, Day 1
  C0: 16100 ng/mL
iv, 3 mg/kg/day, IV 3.0 mg/kg/day, female, Day 1, read-out: AUC0-∞ (converted)
  AUC(0-inf): 1700 ng·h/mL
iv, 3 mg/kg/day, IV 3.0 mg/kg/day, female, Day 1, read-out: Cl
  clearance: 30.1 mL/min/kg
iv, 3 mg/kg/day, IV 3.0 mg/kg/day, female, Day 1, read-out: T1/2
  half-life: 5.7 min
iv, 3 mg/kg/day, IV 3.0 mg/kg/day, female, Day 1, read-out: Vz
  Vd: 0.248 L/kg
iv, 3 mg/kg/day, IV 3.0 mg/kg/day, female, Day 14
  C0: 20000 ng/mL
iv, 3 mg/kg/day, IV 3.0 mg/kg/day, female, Day 14, read-out: AUC0-∞ (converted)
  AUC(0-inf): 1970 ng·h/mL
iv, 3 mg/kg/day, IV 3.0 mg/kg/day, female, Day 14, read-out: Cl
  clearance: 25.9 mL/min/kg
iv, 3 mg/kg/day, IV 3.0 mg/kg/day, female, Day 14, read-out: T1/2
  half-life: 6.13 min
iv, 3 mg/kg/day, IV 3.0 mg/kg/day, female, Day 14, read-out: Vz
  Vd: 0.232 L/kg
iv, 3 mg/kg/day, IV 3.0 mg/kg/day, male, Day 1
  C0: 12500 ng/mL
iv, 3 mg/kg/day, IV 3.0 mg/kg/day, male, Day 1, read-out: AUC0-∞ (converted)
  AUC(0-inf): 1420 ng·h/mL
iv, 3 mg/kg/day, IV 3.0 mg/kg/day, male, Day 1, read-out: Cl
  clearance: 35.9 mL/min/kg
iv, 3 mg/kg/day, IV 3.0 mg/kg/day, male, Day 1, read-out: T1/2
  half-life: 6.01 min
iv, 3 mg/kg/day, IV 3.0 mg/kg/day, male, Day 1, read-out: Vz
  Vd: 0.318 L/kg
iv, 3 mg/kg/day, IV 3.0 mg/kg/day, male, Day 14
  C0: 19900 ng/mL
iv, 3 mg/kg/day, IV 3.0 mg/kg/day, male, Day 14, read-out: AUC0-∞ (converted)
  AUC(0-inf): 1850 ng·h/mL
iv, 3 mg/kg/day, IV 3.0 mg/kg/day, male, Day 14, read-out: Cl
  clearance: 27.4 mL/min/kg
iv, 3 mg/kg/day, IV 3.0 mg/kg/day, male, Day 14, read-out: T1/2
  half-life: 6.05 min
iv, 3 mg/kg/day, IV 3.0 mg/kg/day, male, Day 14, read-out: Vz
  Vd: 0.238 L/kg
iv, 10 mg/kg/day, IV 10 mg/kg/day, female, Day 1
  C0: 53400 ng/mL
iv, 10 mg/kg/day, IV 10 mg/kg/day, female, Day 1, read-out: AUC0-∞ (converted)
  AUC(0-inf): 4550 ng·h/mL
iv, 10 mg/kg/day, IV 10 mg/kg/day, female, Day 1, read-out: Cl
  clearance: 37.1 mL/min/kg
iv, 10 mg/kg/day, IV 10 mg/kg/day, female, Day 1, read-out: T1/2
  half-life: 5.41 min
iv, 10 mg/kg/day, IV 10 mg/kg/day, female, Day 1, read-out: Vz
  Vd: 0.288 L/kg
iv, 10 mg/kg/day, IV 10 mg/kg/day, female, Day 14
  C0: 58300 ng/mL
iv, 10 mg/kg/day, IV 10 mg/kg/day, female, Day 14, read-out: AUC0-∞ (converted)
  AUC(0-inf): 4570 ng·h/mL
iv, 10 mg/kg/day, IV 10 mg/kg/day, female, Day 14, read-out: Cl
  clearance: 36.7 mL/min/kg
iv, 10 mg/kg/day, IV 10 mg/kg/day, female, Day 14, read-out: T1/2
  half-life: 5.9 min
iv, 10 mg/kg/day, IV 10 mg/kg/day, female, Day 14, read-out: Vz
  Vd: 0.312 L/kg
iv, 10 mg/kg/day, IV 10 mg/kg/day, male, Day 1
  C0: 26400 ng/mL
iv, 10 mg/kg/day, IV 10 mg/kg/day, male, Day 1, read-out: AUC0-∞ (converted)
  AUC(0-inf): 3930 ng·h/mL
iv, 10 mg/kg/day, IV 10 mg/kg/day, male, Day 1, read-out: Cl
  clearance: 42.7 mL/min/kg
iv, 10 mg/kg/day, IV 10 mg/kg/day, male, Day 1, read-out: T1/2
  half-life: 5.09 min
iv, 10 mg/kg/day, IV 10 mg/kg/day, male, Day 1, read-out: Vz
  Vd: 0.318 L/kg
iv, 10 mg/kg/day, IV 10 mg/kg/day, male, Day 14
  C0: 51400 ng/mL
iv, 10 mg/kg/day, IV 10 mg/kg/day, male, Day 14, read-out: AUC0-∞ (converted)
  AUC(0-inf): 4680 ng·h/mL
iv, 10 mg/kg/day, IV 10 mg/kg/day, male, Day 14, read-out: Cl
  clearance: 36.6 mL/min/kg
iv, 10 mg/kg/day, IV 10 mg/kg/day, male, Day 14, read-out: T1/2
  half-life: 6 min
iv, 10 mg/kg/day, IV 10 mg/kg/day, male, Day 14, read-out: Vz
  Vd: 0.316 L/kg
